According to PubChem BioAssay AID2750 (The Scripps Research Institute Molecular Screening Center, 2010):
Several values for one entry are separate records, joined by “and”; a condition that tells them apart may be missing. Equal entries are not always repeated.

System: DLD-1 KLF5 promoter-luciferase reporter, luminescence
Experiment: potency of KLF5 luciferase signal suppressors – luminescence, DLD-1 cells, powder samples, late-stage follow-up (AID 2750)

IC50 | Structure (SMILES)
595 nM | CC(C)(C)c1ccc(C(=O)O/N=C(\N)c2ccccn2)cc1
71.8 nM and 57.2 nM | CC(C)(C)c1ccc(-c2noc(CCC(=O)Nc3cccnc3)n2)cc1
132 nM | CCCc1ccc(C(=O)O/N=C(\N)c2ccccn2)cc1
67.6 nM | Cc1cc(C(=O)CN2C(=O)c3ccccc3S2(=O)=O)c(C)n1CC1CCCO1 (stereo unspecified)
20.1 nM | CCOC(=O)c1sc(NC(=O)c2cc3c(s2)CCC(C)C3)nc1C (stereo unspecified)
27.1 nM | CN1CCN(c2ccc(-c3ccc4ccccc4n3)cc2)CC1

The remaining lines, values behind:

Structure (SMILES) | IC50
O=C(NCCc1ccccc1F)c1ccc2c(c1)OCCO2 | 162 nM
COc1ccc(C(=O)Nc2ccccc2C(=O)NN=Cc2ccc(O)c(OC)c2)cc1 | 11.3 nM
O=C(NCCc1ccccc1)c1ccc2c(c1)OCCCO2 | 217 nM
COc1ccc(OCc2cccc(C(=O)Nn3cc([N+](=O)[O-])cn3)c2)cc1 | 357 nM
c1ccc(-c2ccc(-c3nc(-c4ccccn4)no3)cc2)cc1 | 285 nM
CCOC(=O)c1sc(NC(=O)c2ccc3ncsc3c2)nc1C | 22.1 nM and 18.7 nM
COc1cccc(C=NNc2ccc(C(=O)O)cc2)c1O | 10.4 nM
Cc1ccc2nc(NC(=O)CCCc3nc4ccccc4s3)sc2c1 | 180 nM
CCCc1ccc(-c2ccc(/C=C/C(=O)O)cc2)nc1 | 75.2 nM
CN(C(=O)COC(=O)/C=C/c1cccc([N+](=O)[O-])c1)C1CCS(=O)(=O)C1 (stereo unspecified) | 603 nM
